Here are results for 15 compounds from paper PMC11986975, “A Cdk5 inhibitor restores cognitive function and alleviates type 2 diabetes in mice” (iScience, 2025).

The target in one assay is Cdk5/p25 (Homo sapiens, UniProt Q00535). Briefly: Cdk5 kinase assay (ADP-Glo) with Cdk5/p25 complex. The format is biochemical. The conditions noted are these: 10 μM ATP, histone substrate, inhibitor 0-100 nM. The protocol:
(§1) The test tube Cdk5 Kinase assay was performed utilizing Cdk5/p35 and Cdk5/p25 complexes as kinases, following the modified procedure outlined in a previous study,[52] using a Promega ADP-GloTM Kinase Assay kit. The reaction was carried out with 10 μM ATP and 2 μg of histone as the substrate for Cdk5 complexes. To study the inhibition patterns, 19 Cdk5 inhibitors (BLINK1-19) identified through molecular docking were added to the Cdk5 kinase reaction in increasing concentrations ranging from 0 to 100 nM. The IC50 (half-maximal inhibitory concentration) values of all the inhibitors were calculated based on Log(inhibitor) vs. normalized response using GraphPad software.
Background: ADP-Glo turns the ADP formed in a reaction into a luminescent signal.

A further assay addresses Cdk5/p35 (Homo sapiens, UniProt Q00535). Briefly: Cdk5 kinase assay (ADP-Glo) with Cdk5/p35 complex. The format is biochemical. The conditions noted are these: 10 μM ATP, histone substrate, inhibitor 0-100 nM. The procedure:
as §1

Usually IC50 stands for the point on the concentration scale where inhibition reaches its midpoint.

The structures appear in SMILES notation.

Cdk5/p35, sequence (Q00535 whole entry, species assumed): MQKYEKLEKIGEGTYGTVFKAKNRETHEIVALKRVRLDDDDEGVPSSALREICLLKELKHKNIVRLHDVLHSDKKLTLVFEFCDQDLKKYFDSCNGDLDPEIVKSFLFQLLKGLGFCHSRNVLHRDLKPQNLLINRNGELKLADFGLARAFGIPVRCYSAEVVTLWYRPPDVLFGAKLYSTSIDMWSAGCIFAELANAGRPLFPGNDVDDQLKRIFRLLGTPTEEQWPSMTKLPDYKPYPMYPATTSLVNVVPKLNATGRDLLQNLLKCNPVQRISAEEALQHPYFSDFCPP
Cdk5/p35, sequence (Q15078 whole entry partner, species assumed): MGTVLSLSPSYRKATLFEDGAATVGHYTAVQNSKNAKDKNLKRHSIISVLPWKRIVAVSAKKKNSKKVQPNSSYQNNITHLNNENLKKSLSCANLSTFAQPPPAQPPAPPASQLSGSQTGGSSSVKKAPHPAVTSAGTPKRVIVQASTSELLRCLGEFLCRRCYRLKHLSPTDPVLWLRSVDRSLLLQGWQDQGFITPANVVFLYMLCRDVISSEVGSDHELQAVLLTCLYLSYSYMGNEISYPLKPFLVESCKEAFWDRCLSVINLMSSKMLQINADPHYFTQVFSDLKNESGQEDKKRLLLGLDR
Cdk5/p25, sequence (Q00535 whole entry, species assumed): as the sequence (Q00535 whole entry, species assumed) above
Cdk5/p25, sequence (Q15078 99-307 partner limits assumed, species assumed): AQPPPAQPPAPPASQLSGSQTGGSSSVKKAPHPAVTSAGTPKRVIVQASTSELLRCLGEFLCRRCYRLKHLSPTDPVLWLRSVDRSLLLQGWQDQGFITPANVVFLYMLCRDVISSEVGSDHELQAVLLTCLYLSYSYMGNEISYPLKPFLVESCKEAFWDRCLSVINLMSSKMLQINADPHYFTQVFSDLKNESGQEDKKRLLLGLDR

Turning to `CC1(C)Cc2c(sc3nc(SCC(=O)O)[nH]c(=O)c23)CO1` [BLINK1], the half-maximal inhibitory concentration (IC50) against Cdk5/p25 was 18.4 nM; on Cdk5/p35 it was 19.2 nM.

Consider `COc1ccc(C(=O)CSc2nc3sc(C)c(C)c3c(=O)[nH]2)cc1C` [BLINK2], for which the IC50 at Cdk5/p25 was 33.5 nM; against Cdk5/p35, 92.6 nM.

As to `Cc1ccc(-c2csc(Cc3nc(-c4cc5ccccc5oc4=O)cs3)n2)cc1` [BLINK3], the results for the IC50 against Cdk5/p25 and on Cdk5/p35 were 71.3 nM and 68.7 nM, respectively.

On to `O=C(Nc1ccc(Cl)cc1C(=O)NCCO)c1ccc(Cl)cc1Cl` [BLINK4], for which the IC50 against Cdk5/p25 stood at 16.9 nM; at Cdk5/p35 it was 27.7 nM.

For `CN(C)C(=O)CSc1nc2sc3c(c2c(=O)[nH]1)CCCC3` [BLINK5], the IC50 against Cdk5/p25 came to 17.5 nM; against Cdk5/p35, 16.9 nM.

For the compound `OCCCNc1nc(-c2ccccc2Cl)c2cc(Br)ccc2n1` [BLINK6], the values for the IC50 against Cdk5/p25 and on Cdk5/p35 were 141 nM and 183 nM, respectively.

Regarding `Cc1nnc(SCC(=O)Nc2nsc(-c3ccc(Cl)cc3)n2)s1` [BLINK7], the IC50 against Cdk5/p25 came out at 97 nM; against Cdk5/p35 it was 85.2 nM.

Turning to `Cc1ccc2nc(Nc3nc(O)cc(CSc4nnc(C)s4)n3)nc(C)c2c1` [BLINK8], the IC50 turned out to be 108 nM at Cdk5/p25 and 50.6 nM against Cdk5/p35.

As for `CCOC(=O)c1cnc(Nc2nc3ccccc3o2)nc1CSc1nnc(C)s1` [BLINK9], the IC50 at Cdk5/p25 stood at 35.1 nM; against Cdk5/p35, 54.1 nM.

Take `O=C(CSc1nnc(-c2ccccc2Cl)[nH]1)c1ccc(O)c(O)c1` [BLINK13]: the figures for the IC50 on Cdk5/p25 and on Cdk5/p35 were 41.5 nM and 20.1 nM, respectively.

Consider `Cc1cc(C)c2nc(-c3cccnc3)cc(C(=O)Nc3sc(Cc4ccccc4)cc3C(N)=O)c2c1` [BLINK14], for which the results for the IC50 at Cdk5/p25 and against Cdk5/p35 were 23.1 nM and 24.8 nM, respectively.

Consider `Clc1ccc2nc(SCc3csc(Nc4ccccc4)n3)oc2c1` [BLINK16], for which the IC50 came to 21.2 nM at Cdk5/p25 and 28 nM at Cdk5/p35.

With `O=C(CSc1n[nH]c(-c2ccc(Cl)cc2)n1)N[C@H]1C[C@@H]2CC[C@H]1C2` [BLINK17], the IC50 worked out at 43.2 nM against Cdk5/p25 and 63.2 nM on Cdk5/p35.

On to `O=C1c2cccc3cccc(c23)C(=O)N1CCCSc1n[nH]c(-c2ccc(F)cc2)n1` [BLINK18], for which the IC50 against Cdk5/p25 came out at 32.1 nM; against Cdk5/p35, 57.2 nM.

For the compound `CC1CCc2c(sc3nc(CCl)ncc23)C1` (stereo not drawn) [BLINK19], the IC50 against Cdk5/p25 turned out to be 48.1 nM; on Cdk5/p35, 55.3 nM.
